Measurements reported in the supplement of paper PMC8671470.

Assays:
Details in all cases: 72 h
BV-173 [1] = test system: BV-173
Procedure, shortened: (§1)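 For the IC50, dose–response curves were fitted with a log-logistic model. The data came from fifteen myeloid leukaemia cell lines grown in RPMI 1640 at densities in the linear growth range and incubated in 384-well plates for 72 h at 37 °C under 5% CO2. Doses were five tenfold steps from 1 to 10,000 nM in duplicate, and luminescent ATP viability was normalised to vehicle and to a positive control at 10 µM before four-parameter fitting.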

HEL [2] = test system: HEL
Procedure, shortened: as §1

HL-60 [3] = test system: HL-60
Procedure, shortened: as §1

K-562 [4] = test system: K-562
Procedure, shortened: as §1

KCL-22 [5] = test system: KCL-22
Procedure, shortened: as §1

KG-1 [6] = test system: KG-1
Procedure, shortened: as §1

KU-812 [7] = test system: KU-812
Procedure, shortened: as §1

LAMA-84 [8] = test system: LAMA-84
Procedure, shortened: as §1

ML-2 [9] = test system: ML-2
Procedure, shortened: as §1

MOLM-13 [10] = test system: MOLM-13
Procedure, shortened: as §1

MV4-11 [11] = test system: MV4-11
Procedure, shortened: as §1

Mono-Mac-6 [12] = test system: Mono-Mac-6
Procedure, shortened: as §1

NOMO-1 [13] = test system: NOMO-1
Procedure, shortened: as §1

SHI-1 [14] = test system: SHI-1
Procedure, shortened: as §1

THP-1 [15] = test system: THP-1
Procedure, shortened: as §1

BV-173 [16] = experiment: cell viability (% survival relative to DMSO control, bortezomib = 0%); higher = less cytotoxic
Procedure, shortened: (§2)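 Seeding density for each of the 10 AML and 5 CML cell lines was titrated to the linear growth range. Cells went into 384-well plates pre-printed in duplicate with compounds at 1, 10, 100, 1000 or 10000 nM and were held for 72 h at 37 °C with 5% CO2. CellTiter-Glo luminescence then provided the readout. Percent survival is expressed relative to vehicle at 100% and a 10 µM positive control at 0%, averaged over duplicates.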

HEL [17] = experiment: as above
Procedure, shortened: as §2

HL-60 [18] = experiment: as above
Procedure, shortened: as §2

K-562 [19] = experiment: as above
Procedure, shortened: as §2

KCL-22 [20] = experiment: as above
Procedure, shortened: as §2

KG-1 [21] = experiment: as above
Procedure, shortened: as §2

KU-812 [22] = experiment: as above
Procedure, shortened: as §2

LAMA-84 [23] = experiment: as above
Procedure, shortened: as §2

ML-2 [24] = experiment: as above
Procedure, shortened: as §2

MOLM-13 [25] = experiment: as above
Procedure, shortened: as §2

MV4-11 [26] = experiment: as above
Procedure, shortened: as §2

Mono-Mac-6 [27] = experiment: as above
Procedure, shortened: as §2

NOMO-1 [28] = experiment: as above
Procedure, shortened: as §2

SHI-1 [29] = experiment: as above
Procedure, shortened: as §2

THP-1 [30] = experiment: as above
Procedure, shortened: as §2

CCOC(=O)c1ccc(-c2ccc(OC(=O)N(C)Cc3cccc(-c4ccncc4)c3)cc2)cc1 [WWL113]
Details | IC50 (cell viability) [µM]
BV-173 [1] | > 10
HEL [2] | > 10
HL-60 [3] | > 10
K-562 [4] | > 10
KCL-22 [5] | > 10
KG-1 [6] | > 10
KU-812 [7] | > 10
LAMA-84 [8] | > 10
ML-2 [9] | > 10
MOLM-13 [10] | > 10
MV4-11 [11] | > 10
Mono-Mac-6 [12] | > 10
NOMO-1 [13] | > 10
SHI-1 [14] | > 10
THP-1 [15] | > 10

cell viability [%]
Details | 1 nM | 10 nM | 100 nM | 1000 nM | 10000 nM
BV-173 [16] | 123 | 114 | 102 | 105 | 94.9
HEL [17] | 134 | 99.2 | 91.9 | 104 | 99.6
HL-60 [18] | 103 | 91.3 | 89.1 | 114 | 125
K-562 [19] | 121 | 105 | 94 | 92.1 | 87.5
KCL-22 [20] | 132 | 95.4 | 98.7 | 92.9 | 110
KG-1 [21] | 99.2 | 93.4 | 92.7 | 94.3 | 107
KU-812 [22] | 112 | 100 | 105 | 91.6 | 92
LAMA-84 [23] | 113 | 104 | 94.8 | 114 | 101
ML-2 [24] | 104 | 101 | 94.7 | 106 | 106
MOLM-13 [25] | 120 | 122 | 97.3 | 85.8 | 105
MV4-11 [26] | 129 | 101 | 105 | 103 | 93.3
Mono-Mac-6 [27] | 108 | 112 | 102 | 94.2 | 109
NOMO-1 [28] | 104 | 106 | 88.1 | 104 | 105
SHI-1 [29] | 114 | 100 | 92 | 95.2 | 108
THP-1 [30] | 114 | 101 | 95.2 | 101 | 102
